From ChEMBL document CHEMBL1201862, “PubChem BioAssay data set” (2004) come the findings set out here.

Each structure is given as a SMILES string. Active and inactive are the calls of the source.

Test [1] has as its target T1, RNA-binding protein pos-1 (Caenorhabditis elegans, UniProt G5EF15).
T1 sequence (G5EF15 whole entry): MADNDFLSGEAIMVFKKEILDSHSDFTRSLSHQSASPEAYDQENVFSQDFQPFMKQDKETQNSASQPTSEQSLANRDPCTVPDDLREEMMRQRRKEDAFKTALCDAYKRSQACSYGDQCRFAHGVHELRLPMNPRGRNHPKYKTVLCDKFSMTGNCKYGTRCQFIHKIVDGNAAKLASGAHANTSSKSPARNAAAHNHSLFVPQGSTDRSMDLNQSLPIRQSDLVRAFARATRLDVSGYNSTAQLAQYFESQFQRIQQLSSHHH
As to the kind of experiment: inhibitors of POS-1/mex-3 RNA binding, dose response, biochemical, fluorescence polarization (AID 1964).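 Further: purified POS-1 fused to maltose binding protein made in E. coli; potency of compounds blocking POS-1 binding to fluorescent RNA.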

Test [2] has as its target T2, Zinc finger protein mex-5 (Caenorhabditis elegans, UniProt Q9XUB2).
T2 sequence (Q9XUB2 whole entry): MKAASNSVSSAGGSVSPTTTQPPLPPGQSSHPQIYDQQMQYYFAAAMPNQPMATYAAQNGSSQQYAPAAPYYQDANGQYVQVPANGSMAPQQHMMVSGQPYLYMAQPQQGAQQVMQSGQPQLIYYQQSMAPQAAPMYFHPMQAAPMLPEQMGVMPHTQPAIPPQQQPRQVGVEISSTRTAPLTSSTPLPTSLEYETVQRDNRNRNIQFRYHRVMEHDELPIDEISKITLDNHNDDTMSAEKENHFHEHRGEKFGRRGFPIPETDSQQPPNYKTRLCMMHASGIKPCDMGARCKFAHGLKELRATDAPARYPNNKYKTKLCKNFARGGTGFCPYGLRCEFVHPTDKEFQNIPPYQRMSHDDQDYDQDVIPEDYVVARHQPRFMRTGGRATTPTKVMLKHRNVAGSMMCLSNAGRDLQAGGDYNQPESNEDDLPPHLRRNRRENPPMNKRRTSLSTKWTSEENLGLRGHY
As to the kind of experiment: MEX-5/TCR-2 RNA interaction inhibitors, dose response, biochemical, C. elegans, fluorescence polarization (AID 1960). For orientation: Polarisation of emitted light reports the rotation of a fluorescent probe.

Test [3] concerns the target Glucose-6-phosphate 1-dehydrogenase (Homo sapiens, UniProt P11413). As to the kind of experiment: human G6PD enzyme inhibitors, dose response, selectivity assay for P. falciparum G6PD inhibitor project, biochemical, fluorescence (AID 504792). The format is functional.
Test [4] has as its target T3, Heat shock factor protein 1 (Mus musculus, UniProt P38532).
T3 sequence (P38532 whole entry): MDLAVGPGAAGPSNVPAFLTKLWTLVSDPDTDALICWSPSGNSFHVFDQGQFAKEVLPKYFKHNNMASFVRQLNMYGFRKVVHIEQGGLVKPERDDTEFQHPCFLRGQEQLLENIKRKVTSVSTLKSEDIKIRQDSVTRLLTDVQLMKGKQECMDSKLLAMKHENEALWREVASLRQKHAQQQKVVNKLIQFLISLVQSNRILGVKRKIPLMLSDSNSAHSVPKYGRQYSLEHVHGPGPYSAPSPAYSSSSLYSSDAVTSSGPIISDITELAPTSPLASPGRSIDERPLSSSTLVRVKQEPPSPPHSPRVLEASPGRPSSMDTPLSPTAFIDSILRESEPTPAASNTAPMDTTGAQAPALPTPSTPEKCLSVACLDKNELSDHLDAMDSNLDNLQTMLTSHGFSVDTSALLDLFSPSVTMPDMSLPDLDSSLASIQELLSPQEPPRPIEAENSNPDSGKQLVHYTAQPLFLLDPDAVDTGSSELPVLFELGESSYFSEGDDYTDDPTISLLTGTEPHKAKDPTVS
Kind of test: HSF1 potentiators in luciferase reporter cells, confirmation, cell-based, NIH3T3, luminescence, dose retest (AID 435004).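 Further: stress induced by proteasome inhibitor MG132 added 30 min after compound; luciferase reporter driven by HSF1 response element in NIH3T3 cells; actives raise luminescence as potentiators of the MG132 stress response.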 The format is functional. A general note: In a reporter assay the amount or activity of a reporter protein is the signal.

The target of another test is T4, Cysteine protease ATG4B (Homo sapiens, UniProt Q9Y4P1).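 Further: Fluorescence-based dose-response confirmation assay measuring inhibition of ATG4B activity.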
T4 sequence (Q9Y4P1 whole entry): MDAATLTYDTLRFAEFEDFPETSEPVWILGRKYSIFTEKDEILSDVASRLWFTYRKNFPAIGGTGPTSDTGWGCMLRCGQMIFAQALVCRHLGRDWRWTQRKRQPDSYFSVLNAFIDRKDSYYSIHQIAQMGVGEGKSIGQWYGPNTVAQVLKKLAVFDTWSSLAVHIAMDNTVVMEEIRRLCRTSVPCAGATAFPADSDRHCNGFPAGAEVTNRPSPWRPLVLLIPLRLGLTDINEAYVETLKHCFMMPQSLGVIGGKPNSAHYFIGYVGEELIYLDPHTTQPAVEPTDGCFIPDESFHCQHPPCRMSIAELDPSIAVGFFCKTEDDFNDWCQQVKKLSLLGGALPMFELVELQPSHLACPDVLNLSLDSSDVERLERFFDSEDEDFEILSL
The format is functional.

In a further test the target is Phospholipase A2 (Homo sapiens, UniProt P04054). Type of test: functional.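 Further: confirmatory dose-response counterscreen on phospholipase A2, testing hits that came from an ultra-high-throughput screen for ATG4B inhibitors.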
Phospholipase A2, sequence (P04054 whole entry): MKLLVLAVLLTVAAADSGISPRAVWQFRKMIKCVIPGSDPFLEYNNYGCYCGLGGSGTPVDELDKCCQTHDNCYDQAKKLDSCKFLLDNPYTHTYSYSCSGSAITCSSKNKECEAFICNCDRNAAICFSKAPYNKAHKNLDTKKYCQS
The nature of test [5]: insulin promoter down-regulators in MIN6 cells, imaging, high-content screening, mouse beta cells (AID 1628). Type of test: functional.
A short description of test [6]: cytotoxicity in MIN6 insulinoma cells, dose response, cytotoxicity control, cell-based, mouse insulinoma (AID 2122).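 Further: confirmatory high-throughput counterscreen run to flag cytotoxic compounds; mouse MIN-6 beta cells carrying an insulin promoter eGFP reporter.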 The format is functional.
Test [7] can be described thus: Shn3 3'UTR reporter inhibitors, dose response, cell-based, Clone20 osteoblasts, firefly luciferase, cherry-picked (AID 624132).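 Further: firefly luciferase luminescence from reporter carrying the Shn3 3'UTR in osteoblasts.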 Type of test: functional.
The nature of test [8]: HepG2 cell cytotoxicity, dose response, cytotoxicity control for Shn3 inhibitor project, CellTiter-Glo, cherry-picked (AID 624134). The format is functional, cell-based. For orientation: In ATP-based viability assays light output follows the ATP content of the culture.
Test [9] in a line: control 3'UTR Renilla luciferase suppression, dose response, counter-screen for Shn3 inhibitor project, cell-based, Clone20-Shn3RL, cherry-picked (AID 624133). Type of test: functional.
In test [10] the test system is HEK293. Kind of test: inhibitors of LMP1-driven NF-kB reporter, dose response, cell-based, HEK293, luciferase, cherry-pick (AID 588343). The format is functional. Particulars: Homo sapiens.
The test system of test [11] is HEK293. Kind of test: NOD1 signaling inhibitors, primary screen, cell-based, luminescence, uHTS (AID 1578). Type of test: functional. Particulars: Homo sapiens.
Test [12] concerns BJ. As to the kind of experiment: cytotoxicity toward BJ-TERT fibroblasts, dose response, cell-based, RAS-independent, luminescence (AID 1933). Type of test: functional. The conditions noted are these: Homo sapiens.
The subject of test [13] is HEK293. As to the kind of experiment: cells. The format is functional, cell-based. Particulars: Homo sapiens.
The test system of test [14] is BJ. As to the kind of experiment: cells. Particulars: Homo sapiens. Type of test: functional, cell-based.
For test [15], the system named is HEK293. As to the kind of experiment: cells. Type of test: functional, cell-based. The conditions noted are these: Homo sapiens. The source holds these as a separate data set.
For test [16], the system named is HEK293. Kind of test: NOD2 signaling inhibitors in MDP-stimulated cells, cell-based, uHTS, luminescence (AID 2001). Type of test: functional. The conditions noted are these: Homo sapiens.
In another test the target is Prothrombin (Homo sapiens, UniProt P00734). As to the kind of experiment: Thrombin 1536 HTS Dose Response Confirmation. [Related pubchem assays: 1046 (Thrombin 1536 HTS; hits were confirmed in this assay)]. The format is functional.
Test [17] relates to BJ. Kind of test: cytotoxicity toward BJ-TERT-LT-ST fibroblasts, dose response, cell-based, RAS-independent, luminescence (AID 1935).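 Further: BJ fibroblasts immortalized with TERT plus LT and ST oncogenes.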 The format is functional. Particulars: Homo sapiens.
Test [18] is described as follows: cytotoxicity toward DRD oncogenic fibroblasts, dose response, cell-based, non-viral oncogenic, luminescence (AID 1934). Type of test: functional. Particulars: Homo sapiens.
The next test addresses Tumor necrosis factor (Homo sapiens, UniProt P01375). Kind of test: TNFa-triggered NF-kB activation inhibitors, SAR follow-up, cell-based, revised (AID 2337). Type of test: functional.
Test [19] has as its target T5, Nucleotide-binding oligomerization domain-containing protein 1 (Homo sapiens, UniProt Q9Y239).
T5 sequence (Q9Y239 whole entry): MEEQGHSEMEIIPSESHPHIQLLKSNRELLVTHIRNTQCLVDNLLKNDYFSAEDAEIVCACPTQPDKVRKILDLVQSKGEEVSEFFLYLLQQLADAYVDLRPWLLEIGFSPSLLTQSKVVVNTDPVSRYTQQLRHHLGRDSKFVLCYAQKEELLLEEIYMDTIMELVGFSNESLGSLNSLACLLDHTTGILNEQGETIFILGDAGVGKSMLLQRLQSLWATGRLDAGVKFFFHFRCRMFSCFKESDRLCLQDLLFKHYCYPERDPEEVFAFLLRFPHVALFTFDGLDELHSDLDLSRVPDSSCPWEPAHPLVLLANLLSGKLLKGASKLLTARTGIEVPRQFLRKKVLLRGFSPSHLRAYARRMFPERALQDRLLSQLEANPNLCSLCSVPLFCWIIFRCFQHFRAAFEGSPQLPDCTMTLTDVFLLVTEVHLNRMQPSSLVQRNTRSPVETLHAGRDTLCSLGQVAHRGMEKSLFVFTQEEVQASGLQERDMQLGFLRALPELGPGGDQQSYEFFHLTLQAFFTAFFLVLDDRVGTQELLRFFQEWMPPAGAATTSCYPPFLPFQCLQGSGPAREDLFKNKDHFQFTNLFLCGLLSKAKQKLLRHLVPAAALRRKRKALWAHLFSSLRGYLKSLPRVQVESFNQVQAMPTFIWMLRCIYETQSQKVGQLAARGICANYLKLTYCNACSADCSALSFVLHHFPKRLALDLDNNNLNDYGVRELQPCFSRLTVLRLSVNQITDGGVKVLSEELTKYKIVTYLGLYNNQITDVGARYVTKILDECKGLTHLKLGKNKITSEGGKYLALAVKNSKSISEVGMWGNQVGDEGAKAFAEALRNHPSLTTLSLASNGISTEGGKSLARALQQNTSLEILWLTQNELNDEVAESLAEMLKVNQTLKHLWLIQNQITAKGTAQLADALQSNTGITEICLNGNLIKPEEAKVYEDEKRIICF
As to the kind of experiment: NOD1 signaling inhibitors, SAR follow-up, revised (AID 2333). Type of test: functional.

In test [20] the test system is BJ. Kind of test: cytotoxicity toward Ras-transformed BJeLR fibroblasts, dose response, cell-based, alamar blue fluorescence, cherrypicked samples (AID 2631).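 Further: confirmatory dose-response assay in RAS-dependent BJ fibroblasts engineered with TERT, LT and ST, with cytotoxicity read by fluorescence.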 Type of test: functional. Particulars: Homo sapiens.
The test system of test [21] is HEK293. As to the kind of experiment: cells. Particulars: Homo sapiens.
Test [22] concerns the target Nucleotide-binding oligomerization domain-containing protein 2 (Homo sapiens, UniProt Q9HC29). As to the kind of experiment: NOD2 signaling inhibitors, cell-based, luminescence, uHTS, HEK293 (AID 1566). The format is functional.
Test [23] concerns HEK293. As to the kind of experiment: cells. The format is functional, cell-based. The conditions noted are these: Homo sapiens. The source holds these as a separate data set.

Tumor necrosis factor, sequence (P01375 whole entry, the tested form may be a part): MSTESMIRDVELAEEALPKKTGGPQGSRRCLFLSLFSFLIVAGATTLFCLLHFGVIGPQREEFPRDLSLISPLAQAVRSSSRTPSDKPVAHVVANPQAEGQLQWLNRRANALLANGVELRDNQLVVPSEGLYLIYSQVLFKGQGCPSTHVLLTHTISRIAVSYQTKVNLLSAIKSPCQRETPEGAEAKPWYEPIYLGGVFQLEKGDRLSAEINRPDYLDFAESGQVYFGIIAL
Nucleotide-binding oligomerization domain-containing protein 2, sequence (Q9HC29 whole entry, the tested form may be a part): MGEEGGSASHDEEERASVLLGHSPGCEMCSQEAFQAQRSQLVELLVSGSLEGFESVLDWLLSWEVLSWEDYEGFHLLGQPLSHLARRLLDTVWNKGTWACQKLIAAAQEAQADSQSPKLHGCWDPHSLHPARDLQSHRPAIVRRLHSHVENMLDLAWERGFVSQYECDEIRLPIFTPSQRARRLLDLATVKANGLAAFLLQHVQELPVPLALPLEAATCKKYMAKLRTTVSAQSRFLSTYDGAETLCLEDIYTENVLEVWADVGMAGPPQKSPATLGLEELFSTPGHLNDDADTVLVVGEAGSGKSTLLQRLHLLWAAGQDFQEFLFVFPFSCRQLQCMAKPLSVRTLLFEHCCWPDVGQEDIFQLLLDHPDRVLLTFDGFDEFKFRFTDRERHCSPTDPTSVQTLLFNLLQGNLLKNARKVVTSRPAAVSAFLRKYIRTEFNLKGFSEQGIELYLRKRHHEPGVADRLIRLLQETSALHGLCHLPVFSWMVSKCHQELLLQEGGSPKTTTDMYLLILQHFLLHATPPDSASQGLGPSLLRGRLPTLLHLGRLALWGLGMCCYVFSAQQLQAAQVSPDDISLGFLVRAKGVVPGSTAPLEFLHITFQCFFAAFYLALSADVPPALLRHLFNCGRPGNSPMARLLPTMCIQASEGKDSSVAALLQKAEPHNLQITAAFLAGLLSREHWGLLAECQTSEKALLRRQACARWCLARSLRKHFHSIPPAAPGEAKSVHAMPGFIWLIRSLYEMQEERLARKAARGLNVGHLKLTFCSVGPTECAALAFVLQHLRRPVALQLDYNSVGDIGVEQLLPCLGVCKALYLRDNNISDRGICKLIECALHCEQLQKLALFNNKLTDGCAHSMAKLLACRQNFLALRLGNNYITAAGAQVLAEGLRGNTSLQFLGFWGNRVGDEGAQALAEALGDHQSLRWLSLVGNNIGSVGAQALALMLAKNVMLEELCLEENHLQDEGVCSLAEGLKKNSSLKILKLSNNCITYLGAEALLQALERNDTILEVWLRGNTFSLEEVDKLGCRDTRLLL
Glucose-6-phosphate 1-dehydrogenase, sequence (P11413 whole entry): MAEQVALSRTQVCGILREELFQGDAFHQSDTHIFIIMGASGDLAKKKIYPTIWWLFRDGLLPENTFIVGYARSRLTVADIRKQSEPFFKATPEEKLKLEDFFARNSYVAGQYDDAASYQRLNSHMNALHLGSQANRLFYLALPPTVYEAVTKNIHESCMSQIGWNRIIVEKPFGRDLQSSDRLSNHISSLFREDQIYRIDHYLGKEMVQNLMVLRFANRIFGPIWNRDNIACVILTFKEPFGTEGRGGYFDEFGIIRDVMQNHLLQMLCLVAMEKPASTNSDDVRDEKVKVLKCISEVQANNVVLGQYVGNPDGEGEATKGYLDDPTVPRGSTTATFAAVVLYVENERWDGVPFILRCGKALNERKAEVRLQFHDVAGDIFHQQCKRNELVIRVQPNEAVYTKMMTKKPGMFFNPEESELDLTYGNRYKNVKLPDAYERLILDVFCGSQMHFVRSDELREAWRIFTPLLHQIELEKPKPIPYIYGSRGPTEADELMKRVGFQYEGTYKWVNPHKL

As for `Oc1ccc(C2C[C@H]3CC[C@@H]2C3)cc1O` (stereo not given in full), the EC50 in test [1] is > 300 µM (not active); in test [2], 20.6 µM (inconclusive); in test [4], 20 µM (active). The IC50 in test [3] is > 80 µM (inactive).
In the case of `COC(=O)CSc1nc2cc(Cl)ccc2c(=O)n1C1CCCC1`, the values for the IC50 at Cysteine protease ATG4B and on Phospholipase A2 were 5.43 µM (active) and 11.4 µM (active), respectively.
As for `O=C(CN(C(=O)c1ccc(Cl)cc1)C1CCCCC1)Nc1ccc(Cl)c([N+](=O)[O-])c1`, the IC50 in test [5] is 3.45 µM (active); in test [6], 1.85 µM (active). Also, the AC50 in test [7] was 8.11 µM (active); in test [8], 52.6 µM (active); in test [9] it was 20.6 µM (active).
`Cc1cccc(NC(=S)N=Nc2c(O)n(C)c3ccc(S(=O)(=O)N4CCOCC4)cc23)c1`: the IC50 in [5] was 6.3 µM (active); in [6] it was 5.04 µM (active). In addition, the AC50 in the test with HEK293 [10] was 0.985 µM (active).
Take `Cc1cccc(Nc2nc(N)nc(CCl)n2)c1`: the EC50 was 8.71 µM (active) in the test with HEK293 [11]; 6.83 µM (inconclusive) with BJ [12]; 7.74 µM (active) in the test on BJ [14]; > 75 µM (inconclusive) with BJ [17]; 3.92 µM (active) in test [18]; 24.4 µM (active) in the test with BJ [20]. Further, the IC50 was 9.2 µM (active) in the test with HEK293 [13]; > 20 µM (inactive) in the test with HEK293 [15]; 10.2 µM (inactive) in the test on HEK293 [16]; > 50 µM (not active) on Prothrombin; > 20 µM (inactive) on Tumor necrosis factor; 4.54 µM (active) in [19]. For the same compound, the IC50 in the test with HEK293 [21] is > 20 µM (inactive).
On to `Cc1ccccc1C(=O)N1CCN(c2ccc(NC(=O)c3ccc4c(c3)OCCO4)cc2)CC1`, for which the EC50 is 4.61 µM (active) with HEK293 [11] and 10.2 µM (active) in [22]. Further, the IC50 was 4.55 µM (active) in the test on HEK293 [13]; 9.82 µM (active) with HEK293 [15]; 3.6 µM (active) in the test with HEK293 [16]; > 20 µM (inactive) in the test on HEK293 [23]; 4.73 µM (active) on Tumor necrosis factor; 3.69 µM (active) in test [19]. For the same compound, in the test on HEK293 [21], the IC50 is > 20 µM (inactive). Also, the AC50 in [7] is 2.17 µM (active); in test [8] it was 4.24 µM (active).
For `O=C(CNCCc1ccc(Cl)cc1Cl)NCc1ccco1`, the IC50 on Cysteine protease ATG4B is 18.7 µM (active); at Phospholipase A2, 12.3 µM (active).

What is called EC50 is the concentration giving half of the maximal effect. In general, IC50 refers to the concentration at which inhibition is half-maximal. As usually defined, the AC50 is the concentration at which the activity in the assay is half-maximal.
